Measured values published in patent US20080268439A1, “ASSAY SYSTEMS AND METHODS FOR DETECTING MOLECULES THAT INTERACT WITH SK2 CHANNELS” (priority 2007, published 2008).

Assays:
[1] = biological target: intermediate conductance Ca^2+-activated K^+ channels (Homo sapiens, UniProt O15554); conditions: cited from earlier work
[2] = test system: hSK2A^+ expressed in mammalian tsA201 cells; assay: Membrane potential sensitive dye fluorescence (FLIPR) assay in tsA201 cells stably expressing SK2; assay type: cell-based, human; conditions: 10 minutes incubation
Protocol: (§1) These cells were plated in a black optical bottom 384 well assay plate at a density of 8×10^6 cells/plate. […] After a 30-minute incubation in the voltage sensitive dye, the cell plate was transferred to a fluorescence plate reader (FLIPR384™, Molecular Devices), and ten baseline fluorescence readings were obtained.
(§2) In FIG. 8, time is represented in seconds on the X-axis, and fluorescence is represented in au on the Y-axis. ATP/Tg addition is indicated at time I, and CsCl addition is indicated at time II.
(§3) The magnitude of the ATP/Tg induced decrease in fluorescence was measured in the presence of each of a panel of known SK2 inhibitors. […]

[3] = biological target: T1, hSK2A^+ expressed in mammalian tsA201 cells (Homo sapiens, UniProt Q9H2S1, DUP58-58); assay: as above; assay type: cell-based; conditions: FIG. 9; for Hill coefficient (nH): inhibition of ATP/Tg induced decrease in fluorescence
T1 construct: other: 100 nM to 1 mM added online; normalized to maximum fluorescence a; Hill coefficient (nH); hSK2A^+ was 1743 nucleotides in length and encoded a polypeptide of 580 amino acids
T1 sequence (Q9H2S1 with tags, fused parts or gaps DUP58-58): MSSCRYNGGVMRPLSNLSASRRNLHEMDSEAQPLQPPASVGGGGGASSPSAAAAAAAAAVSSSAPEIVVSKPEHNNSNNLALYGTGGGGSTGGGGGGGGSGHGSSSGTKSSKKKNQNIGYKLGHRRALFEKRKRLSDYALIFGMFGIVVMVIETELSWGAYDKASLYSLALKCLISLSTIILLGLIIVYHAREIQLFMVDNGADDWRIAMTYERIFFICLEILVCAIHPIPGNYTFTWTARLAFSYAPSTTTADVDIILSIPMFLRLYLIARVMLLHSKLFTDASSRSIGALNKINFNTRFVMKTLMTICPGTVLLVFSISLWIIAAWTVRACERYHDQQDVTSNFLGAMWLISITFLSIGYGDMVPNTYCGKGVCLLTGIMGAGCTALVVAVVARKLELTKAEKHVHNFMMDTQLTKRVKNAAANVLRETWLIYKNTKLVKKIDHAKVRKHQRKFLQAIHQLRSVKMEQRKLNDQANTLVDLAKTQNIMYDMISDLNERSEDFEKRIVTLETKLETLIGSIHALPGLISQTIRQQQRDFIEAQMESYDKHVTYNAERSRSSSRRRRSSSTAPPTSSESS
Protocol: as §1, §2, §3

Chain of intermediate conductance Ca^2+-activated K^+ channels (O15554 whole entry): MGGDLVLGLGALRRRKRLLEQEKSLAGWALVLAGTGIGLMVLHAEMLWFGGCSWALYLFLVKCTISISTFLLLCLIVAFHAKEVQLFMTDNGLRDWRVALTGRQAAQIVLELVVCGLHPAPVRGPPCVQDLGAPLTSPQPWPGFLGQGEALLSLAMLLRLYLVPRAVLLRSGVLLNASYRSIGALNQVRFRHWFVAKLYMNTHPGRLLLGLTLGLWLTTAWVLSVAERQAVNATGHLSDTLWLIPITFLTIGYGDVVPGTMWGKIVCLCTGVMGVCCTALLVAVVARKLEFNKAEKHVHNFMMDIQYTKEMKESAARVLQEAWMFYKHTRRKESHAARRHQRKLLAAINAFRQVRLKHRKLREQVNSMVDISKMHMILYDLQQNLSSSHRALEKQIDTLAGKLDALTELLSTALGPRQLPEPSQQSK

Row | Compound | effect on the fluorescence signals (responses to ATP/Tg and Cs+) ([2]; tested at 833 nM) | binding affinity of the inhibitors tested (rank order) [3] | other results
1 | CCn1c(=O)[nH]c2ccccc21 [1-EBIO, 1-ethyl-2-benzimidazolinone] |  |  | effect on intermediate conductance Ca2+-activated K+ channels [1]: enhance activity
2 | α-dendrotoxin (QPRRKLCILHRNPGRCYDKIPAFYYNQKKKQCERFDWSGCGGNSNRFKTIEECRRTCIG) | no effect |  | 
3 | C=C[C@H]1C[N@@]2CC[C@H]1C[C@@H]2[C@@H](O)c1ccnc2ccc(OC)cc12 [quinidine] |  | apamin>scyllatoxin>NS1619>quinidine>bicuculline | Hill coefficient (nH) [3]: 0.6
4 | iberiotoxin: inhibitor of the IK channel; isolated from Mesobuthus taniulus (QFTDVDCSVSKECWSVCKDLFGVDRGKCMGKKCRCYQ) | no effect |  | 
5 | O=c1[nH]c2cc(C(F)(F)F)ccc2n1-c1cc(C(F)(F)F)ccc1O [NS1619] |  | apamin>scyllatoxin>NS1619>quinidine>bicuculline | 
6 | noxiustoxin: inhibitor of Ca2+- and voltage activated channels (TIINVKCTSPKQCSKPCKELYGSSAGAKCMNGKCKCYNN) | no effect |  | 
7 | CC(N/C(=N\C#N)Nc1ccncc1)C(C)(C)C (centres unmarked) [pinacidil] |  |  | effect on the fluorescence signals (responses to ATP/Tg and Cs+) ([2]; tested at 286 μM): no effect
8 | Nc1cc(N2CCCCC2)nc(N)[n+]1[O-] [minoxidil] |  |  | effect on the fluorescence signals (responses to ATP/Tg and Cs+) ([2]; tested at 1.43 μM): no effect
9 | C[N+]1(C)CCc2cc3c(cc2[C@H]1[C@@H]1OC(=O)c2c1ccc1c2OCO1)OCO3.[Br-] [bicuculline methobromide] |  | apamin>scyllatoxin>NS1619>quinidine>bicuculline | Hill coefficient (nH) [3]: 1
